Test results as given in USRE49873E1, “APP specific bace inhibitors (ASBIs) and uses thereof” (BUCK INSTITUTE FOR RESEARCH ON AGING, priority 2012, dated 2024).

What was measured:
in vivo = test: in vivo; parameters: species or system mice; conditions: mouse; for brain Cmax of galangin: sc, 10 mg/kg
Experimental: The brain penetrance of galangin and progalangin were assessed in a standard PK comprising subcutaneous (Sub-Q) injection of 5 adult non-transgenic mice with 50 ul of a 5 mg/ml stock of compound in dimethylsulfoxide (DMSO) or a dose of 10 mg/kg for a 25 g mouse. Injected mice were anesthetized with ketamine/xylazine at 1, 2, 4, 6, and 8 hours and blood collected by cardiac puncture. The mice were then perfused with saline and brain tissue dissected and snap frozen on dry ice. Blood was centrifuged at 3000 rpm for 10 minutes and the plasma supernatant collected. Both plasma and the right hemibrain were sent to Integrated Analytical Solutions (IAS, Berkeley, Calif.) with a reference sample of compound for compound level analysis in tissue and plasma. The compound levels were determined using a LC-MS/MS approach.
CNS exposure studies were performed and consisted of a time-course design to collect heparinized plasma and brains. Following sc administration of the galangin or progalangin (compound-2) at 10 mg/kg, plasma and brain levels of the compounds were determined by quantitative LC/MS/MS methodology. Plasma samples were precipitated with acetonitrile:methanol (1:1) cocktail containing an internal standard. The brain samples were homogenized directly in ethylacetate or extracted from 5M guanidine homogenates with the liquid-liquid method. The resulting supernatant was evaporated to dryness and subjected to the LC/MS/MS analysis. For each compound 5 mice were used for the analysis. The brain-to-plasma ratios and plasma/brain Cmax levels were then determined (see, e.g., FIG. 8).

[1] = tested on: Aβ1-40 and Aβ1-42 levels in hippocampal/entorhinal cortical tissue; test: Pilot efficacy testing in PDAPP (J20) AD model mice, Aβ ELISA; type: in vivo; conditions: 40 mpk sc daily for 14 days, hippocampus and cortex, 40 mg/kg
Experimental: Galangin and progalangin (PG-1) were dissolved in 10% solutol/15% DMSO/75% polyethylene glycol (PEG). Stock solutions were prepared at 10 mg/ml for each compound and 100 ul was injected subcutaneously daily for 14 days at a dose of 40 mkd. There were 5 PDAPP AD model J20 mice in both the galangin and progalangin groups, and 9 vehicle-only treated J20 controls. Mice were anesthetized, blood collected for plasma, and brain tissue collected as described above 2 hours after injection on the last day of treatment. The right hemibrain was further microdissected to isolate hippocampus and entorhinal cortex and this combined tissue was used for biochemical analysis. The remaining tissue and plasma was sent to IAS for compound level analysis.
Aβ1-42 and Aβ1-40 levels were determined using the hippocampal/entorhinal cortical tissue. Briefly, frozen tissue samples were weighed, and a 20% w/v sonicate prepared in 5M guandine-HCl/50 mM Tris, pH8. Sonication was performed with sample tubes in ice water, 4×5 seconds at 60 Hz, then 3×5 seconds at 80 Hz. Samples were then rotated at room temperature for 3 hours and frozen at −20° C. until assay. Invitrogen ELISA kits were used for Aβ1-40 and Aβ1-42 according to the manufacturer's instructions.

[2] = tested on: APP-Gal4 transactivation in HEK293T cells; test: APP-Gal4/Mint3/TAZ transactivation assay; type: cell-based; conditions: Mint3 and TAZ present; galangin at 10 μM
From the text: (§1) FIGS. 7A and 7B illustrate inhibition of APP-Gal4 and APLP2-Gal4 transactivation by galangin. […] This transactivation was inhibited by Galangin and BACE inhibitor IV. FIG. 7B: Potent transactivation of transcription was also achieved with APLP2 fused to the Gal4 DNA binding domain when both Mint3 and TAZ were present. This transactivation was inhibited by Galangin and BACE inhibitor IV. […] The normalized luciferase activity is expressed as a percentage of the DMSO treated control (FIGS. 7A, 7B). Error bars indicate SEM. (*, p<0.05; **, p<0.01; ***, p<0.001; n=3, student t test).
(§2) This assay system is described by Orcholski et al. (2011) J. Alzheimers Dis., 23(4):689-699. Transactivation is achieved upon transfection with Mint3 and Taz. The ASBI was expected to inhibit only the transactivation of APP-Gal4, not that of APLP2-Gal4. For these experiments cells were co-transfected with a Gal4-luciferase reporter plasmid (to measure transactivation), a beta-galactosidase plasmid (to normalize for transfection efficiency), and the test plasmids identified. The normalized luciferase activity was expressed as fold induction over transcription by APP-Gal4 alone (FIG. 7A), or as fold induction over APLP2-Gal4 alone (FIG. 7B).
(§3) HEK293T cells were co-transfected with five plasmids: (1) pG5E1B-luc, 0.3 μg; (2) pCMV-LacZ, 0.1 μg; (3) pMst-APP (APP-Gal4) or pcDNA3.1-APLP2-Gal4, 0.3 μg; (4) pCMV5-Mint3, 1.0 μg; (5) pEF-N-FLAG-TAZ, 1.0 μg. Cells were harvested 48 hr after transfection in 0.2 ml per well Cell Culture Lysis Buffer (Promega), and their luciferase and β-galactosidase activities were determined with the Promega luciferase assay kit and the Promega β-galactosidase assay kit, respectively. The luciferase activity was standardized by the β-galactosidase activity to control for transfection efficiency and general effects on transcription. Transfections were performed at 80-90% cofluency in six-well plates using Lipofectamine 2000 (Invitrogen).

[3] = tested on: APLP2-Gal4 transactivation in HEK293T cells; test: APLP2-Gal4/Mint3/TAZ transactivation assay; type: cell-based; conditions: Mint3 and TAZ present; galangin at 10 μM
From the text: as §1, §2, §3

Molecule	galangin levels after PG-1 injection versus galangin itself (in vivo)	plasma levels versus brain tissue levels (in vivo)	brain Cmax of galangin (in vivo)	Aβ1-40 (Aβ40) levels in brain [1]	Aβ1-42 (Aβ42) levels in brain [1]	Aβ1-40 (Aβ40) levels in brain ([1]; listed as pro-galangin I)	Aβ1-42 (Aβ42) levels in brain ([1]; listed as pro-galangin I)	Aβ1-40 (Aβ40) levels in brain ([1]; listed as progalangin)	Aβ1-42 (Aβ42) levels in brain ([1]; listed as progalangin)	brain penetration (in vivo)	APP-Gal4 transactivation [2]	APLP2-Gal4 transactivation [3]
CC(=O)Oc1cc(OC(C)=O)c2c(=O)c(O)c(-c3ccccc3)oc2c1 [PG-1, 5,7-Diacetoxy-3-hydroxyflavone]	much higher	Plasma levels were greater than brain tissue levels	~100 ng/g	more effective in vivo than galangin	more effective in vivo than galangin	slightly lowered	slightly lowered	reduction	reduction	–	–	–
C[C@@H]1O[C@@H](OC[C@H]2O[C@@H](Oc3c(-c4ccc(O)c(O)c4)oc4cc(O)cc(O)c4c3=O)[C@H](O)[C@@H](O)[C@@H]2O)[C@H](O)[C@H](O)[C@H]1O [Rutin]	–	–	no rutin was detectable in the brain	–	–	–	–	–	–	does not cross the blood-brain barrier	–	–
BACE inhibitor IV [reference compound]	–	–	–	–	–	–	–	–	–	–	inhibited	inhibited
